From patent US6436948B1, “Method for the treatment of psoriasis and genital warts” (priority 1995, dated 2002)
Entries after “also recorded” stand apart in the source; their conditions may differ.

Tests used:
SN12C = assay: NCI cancer screening program, SRB: SN12C; assay type: cell-based; details: Renal Cancer, PG +50, 48 hours
UO-31 = assay: NCI cancer screening program, SRB: UO-31; assay type: cell-based; details: Renal Cancer, PG +50, 48 hours
PC-3 = assay: NCI cancer screening program, SRB: PC-3; assay type: cell-based; details: Prostate Cancer, PG +50, 48 hours
DU-145 = assay: NCI cancer screening program, SRB: DU-145; assay type: cell-based; details: Prostate Cancer, PG +50, 48 hours
MCF7 = assay: NCI cancer screening program, SRB: MCF7; assay type: cell-based; details: Breast Cancer, PG +50, 48 hours
MCF7/ADR-RES = assay: NCI cancer screening program, SRB: MCF7/ADR-RES; assay type: cell-based; details: Breast Cancer
HS578T = assay: NCI cancer screening program, SRB: HS578T; assay type: cell-based; details: Breast Cancer, PG +50, 48 hours
MDA-MB-435 = assay: NCI cancer screening program, SRB: MDA-MB-435; assay type: cell-based; details: Breast Cancer
MDA-N = assay: NCI cancer screening program, SRB: MDA-N; assay type: cell-based; details: Breast Cancer, PG +50, 48 hours
BT-549 = assay: NCI cancer screening program, SRB: BT-549; assay type: cell-based; details: Breast Cancer, PG +50, 48 hours
T-47D = assay: NCI cancer screening program, SRB: T-47D; assay type: cell-based; details: Breast Cancer, PG +50, 48 hours
[1] = tested on: KB nasopharyngeal carcinoma cell line; assay: In vitro cytotoxicity, methylene blue assay / cell count: KB; assay type: cell-based; details: three generations, mean ± standard deviation of five experiments, read-out: ID50 (the source's name)
[2] = tested on: DU-145 prostate carcinoma line; assay: In vitro cytotoxicity, methylene blue assay / cell count: DU-145; assay type: cell-based; details: Homo sapiens, read-out: ID50 (the source's name)
[3] = tested on: PC-3 prostate carcinoma line; assay: In vitro cytotoxicity, methylene blue assay / cell count: PC-3; assay type: cell-based; details: three generations, mean ± standard deviation of five experiments, read-out: ID50 (the source's name)
CEM cells = assay: In vitro cytotoxicity, methylene blue assay / cell count: CEM; assay type: cell-based; details: Homo sapiens, CCRF-CEM, three generations, mean ± standard deviation of five experiments, read-out: ID50 (the source's name)
tumor cell lines tested = assay: In vitro cytotoxicity, statement on all tumor cell lines tested; assay type: cell-based; details: all of the tumor cell lines tested
HepG2 tumors = assay: HepG2 xenograft in NCr nude mice; assay type: in vivo, human; details: for Effect on HepG2 tumors in words: 25 mg/kg twice a day on days 0 through 4, NCr nude mice; for Net cell kill (log 10): HepG2 tumors, 25 mg/kg twice a day days 0 through 4
Method: (§1) FIG. 5 is a graph of the inhibition of human tumor growth by […]. Three to six week old NCr nude mice were inoculated subcutaneously in each flank with 2×10^6 HepG2 or DU-145 cells. Treatment was started when the tumors were in an advanced stage of growth. Drugs were administered twice a day on days 0 through 4 and tumor sizes were measured on the indicated days. […] Each data point represents the means±SD of 10 tumors in graph A and six tumors in graph B.
(§2) Three to six-week-old NCr nude mice (Taconic Immunodeficient Mice and Rats) were inoculated s.c. in each flank with 2×10^6HepG2 or DU-145 cells and tumors were allowed to grow. Treatment was started when the tumors were 100-250mg as determined by caliper measurement and calculated according to the formula:
(§3) Tumor Weight(mg)=length(mm)×width(mm^2)÷2
(§4) Drugs were given at the indicated doses on days 0 through 4 and tumor sizes were measured every several days. The tumor growth curves were generated as described in Bell, et al., Cancer(phila.) 36:2437-2440 (1975), and are illustrated in FIGS. 5(a) and 5(b).

DU-145 tumors = assay: DU-145 xenograft in NCr nude mice; assay type: in vivo, human
Method: as §1, §2, §3, §4

NCr nude mice = assay type: in vivo
Method: as §4
Toxicity was evaluated by changes in body weight.

[4] = molecular target: human deoxycytidine kinase (Homo sapiens, UniProt P27707); assay: In vitro enzymatic studies of phosphorylation; assay type: biochemical
[5] = Phosphorylation to nucleotides in vivo
BKVX = details: Non-Small Cell Lung Cancer, PG +50, 48 hours
Text: (§5) GI50, TGI and LC50 are values representing the concentrations at which the PG (percent of growth inhibition), defined below, is +50, 0, and −50, respectively.
(§6) If (Mean ODtest−Mean ODtzero)≧0. then PG=100×(Mean ODtest−Mean ODtzero)/(Mean ODctrl−Mean ODtzero)
(§7) If (Mean ODtest−Mean ODtzero)<0. then PG=100×(Mean ODtest−Mean ODtzero)/(Mean ODtzero)
(§8) Mean ODtzero=The average of optical density measurements of SRB-derived color just before exposure of cells to the test compound.
(§9) Mean ODtestThe average of optical density measurements of SRB-derived color after 48 hours exposure of cells to the test compound.
(§10) Mean ODctrl=The average of optical density measurements of SRB-derived color after 48 hours with no exposure of cells to the test compound.
(§11) If these response parameters could not be obtained by interpolation, the value given for each response parameter is the highest concentration tested and is preceded by a “>” sign.

K2112 = details: Colon Cancer
Text: as §5, §6, §7, §8, §9, §10, §11

SP-268 = details: CNS Cancer, PG +50, 48 hours
Text: as §5, §6, §7, §8, §9, §10, §11

SP-295 = details: CNS Cancer, PG +50, 48 hours
Text: as §5, §6, §7, §8, §9, §10, §11

785-4 = details: Renal Cancer, PG +50, 48 hours
Text: as §5, §6, §7, §8, §9, §10, §11

TK-30 = details: Renal Cancer
Text: as §5, §6, §7, §8, §9, §10, §11

MDA-MB-231/ATCC = details: Breast Cancer, PG +50, 48 hours
Text: as §5, §6, §7, §8, §9, §10, §11

cytidine deaminase = cytidine deaminase (Homo sapiens, UniProt P32320); assay: Enzymatic studies of deamination
A549/ATCC = assay: NCI cancer screening program, SRB: A549/ATCC; details: Non-Small Cell Lung Cancer, PG +50, 48 hours
Text: as §5, §6, §7, §8, §9, §10, §11

Sequence of cytidine deaminase (P32320 whole entry, species assumed): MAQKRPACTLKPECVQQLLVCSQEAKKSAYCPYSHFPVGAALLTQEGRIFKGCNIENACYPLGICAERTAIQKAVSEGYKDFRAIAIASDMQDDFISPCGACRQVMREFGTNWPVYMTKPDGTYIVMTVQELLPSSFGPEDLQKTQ
Sequence of human deoxycytidine kinase (P27707 whole entry): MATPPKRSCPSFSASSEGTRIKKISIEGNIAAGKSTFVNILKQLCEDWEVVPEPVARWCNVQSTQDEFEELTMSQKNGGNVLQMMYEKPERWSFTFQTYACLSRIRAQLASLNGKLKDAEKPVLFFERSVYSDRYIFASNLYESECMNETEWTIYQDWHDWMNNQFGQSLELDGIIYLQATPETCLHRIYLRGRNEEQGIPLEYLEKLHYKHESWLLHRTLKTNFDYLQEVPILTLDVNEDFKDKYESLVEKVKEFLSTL

Compound `Nc1ccn([C@@H]2CO[C@H](CO)O2)c(=O)n1` [(−)-OddC, (−)-(2S,4S)-1-(2-hydroxymethyl-1,3-dioxolan-4-yl)cytosine] has an LOG10GI50 (SN12C) of −6.27, an LOG10GI50 (UO-31) of −5.60 and an LOG10GI50 (PC-3) of −6.29. For the same compound, the LOG10GI50 (DU-145) was −6.97, the LOG10GI50 (MCF7) was −5.95 and the LOG10TGI (MCF7/ADR-RES; PG 0, 48 hours) was over −4.00. The LOG10GI50 (MCF7/ADR-RES; PG +50, 48 hours) was −4.97, the LOG10GI50 (HS578T) was over −4.00 and the LOG10TGI (MDA-MB-435; PG 0, 48 hours) was over −4.00. The LOG10GI50 (MDA-MB-435; PG +50, 48 hours) was −4.62, the LOG10GI50 (MDA-N) was −4.33 and the LOG10GI50 (BT-549) was −4.59. The LOG10GI50 (T-47D) was over −4.00, the IC50 [1] was 48 ± 21 nM and the IC50 [2] was 24 ± 20 nM. For the same compound, the IC50 [3] was 56 ± 39 nM, the IC50 (CEM cells) was 25 ± 30 nM and the Cytotoxicity in words (tumor cell lines tested) was “more cytotoxic than AraC”. The “Effect on HepG2 tumors in words” value (HepG2 tumors) was “active”, the “Effect on HepG2 tumors in words” value (HepG2 tumors; listed as (L)-OddC) was “effective” and the “Net cell kill (log 10)” value (HepG2 tumors; i.p. treatment) was 0.67. For the same compound, the “Net cell kill (log 10)” value (HepG2 tumors; oral treatment) was 0.87, the “Effect on DU-145 tumors in words” value (DU-145 tumors; 25 mg/kg twice a day on days 0 through 4, NCr nude mice) was “effective” and the “DU-145 tumors regressing completely” value (DU-145 tumors; by day 15) was “half of them regressing completely”. For the same compound, the “Toxicity as indicated by weight loss of the animals” value (NCr nude mice; doses given, 25 mg/kg twice a day days 0 through 4) was “equally toxic”, the Maximum tolerated dosage (NCr nude mice; twice a day for five continuous days of treatment, preliminary toxicity experiments) was 25 mg/kg and the “Phosphorylation by human deoxycytidine kinase” value [4] was “can be phosphorylated”. The Phosphorylation in vivo [5] was “can be phosphorylated to mono-, di- and tri-phosphate nucleotide”, the Log10GI50 (BKVX) was over −4.00 and the Log10TGI (K2112; PG 0, 48 hours) was over −4.00. The Log10GI50 (K2112; PG +50, 48 hours) was over −4.00, the Log10GI50 (SP-268) was −5.18 and the Log10GI50 (SP-295) was −6.24. For the same compound, the LOG10GI50 (785-4) was −5.36, the LOG10TGI (TK-30; PG 0, 48 hours) was over −4.00 and the LOG10GI50 (TK-30; PG +50, 48 hours) was over −4.00. The LOG10GI50 (MDA-MB-231/ATCC) was over −4.00, the “Substrate for deaminase / deamination by cytidine deaminase” value (cytidine deaminase) was “not a substrate; also recorded: not deaminated” and the Log10GI50 (A549/ATCC) was −6.01.
